This is an account of results in ChEMBL document CHEMBL5550099, “Synthesis and biological activity of 11-Oxygenated and heterocyclic estrone analogs in pancreatic cancer monolayers and 3D spheroids” (Bioorg Med Chem, 2024).

Each structure is given as a SMILES string. pIC50: −log10 of the molar value. Calls of active or inactive are those of the source. The calls are words filed in the database; no cut-off is given here. Some results are limits rather than exact numbers.

One assay has as its system ASPC1. As to the kind of experiment: Cytotoxicity against human ASPC1 cells incubated for 48 hrs by MTT assay. It counts as functional, cell-based. Conditions: ASPC1, 48 h.
Assay [1] deals with PANC-1. As to the kind of experiment: Induction of apoptosis in human PANC-1 cells cultured as 3D spheroids assessed as fold increase in caspase-3/7 activity at 0.1 uM incubated for 48 hrs by Glo-max luminescence assay. It counts as functional.
Assay [2] deals with PANC-1. As to the kind of experiment: Cytotoxicity against human PANC-1 cells cultured as 3D spheroids incubated for 48 hrs by Cell-titer glo luminescence assay. Type of assay: functional, cell-based. Conditions: PANC-1, 48 h.
In assay [3] the test system is PANC-1. As to the kind of experiment: Cytotoxicity against human PANC-1 cells co-cultured with human pancreatic stellate cells incubated for 48 hrs by MTT assay. It counts as functional, cell-based.
In assay [4] the test system is PANC-1. As to the kind of experiment: Induction of apoptosis in human PANC-1 cells co-cultured with human pancreatic stellate cells assessed as decrease in caspase-3/7 activity by measuring reduction in cell number at 1 to 10 uM incubated for 48 hrs by Glo-max luminescence assay. Type of assay: functional, cell-based. Conditions: dose 1-10 µM.
Assay [5] concerns PANC-1. As to the kind of experiment: Cytotoxicity against human PANC-1 cells co-cultured with human pancreatic stellate cells incubated for 48 hrs by Cell-titer glo luminescence assay. It counts as functional, cell-based. As to conditions: PANC-1, 48 h.
Assay [6] concerns PANC-1. As to the kind of experiment: Induction of apoptosis in human PANC-1 cells co-cultured with human pancreatic stellate cells assessed as fold increase in caspase-3/7 activity at 0.1 uM incubated for 48 hrs by Glo-max luminescence assay. It counts as functional.
Assay [7] concerns PANC-1. As to the kind of experiment: Cytotoxicity against human PANC-1 cells incubated for 48 hrs by MTT assay. Type of assay: functional, cell-based. As to conditions: PANC-1, 48 h.
The test system of assay [8] is PANC-1. As to the kind of experiment: Induction of cell cycle arrest in human PANC-1 cells assessed as accumulation of cells at G2 phase at IC50 measured after 72 hrs by propidium iodide/RNase 141 staining based flow cytometry. Type of assay: functional.
For assay [9], the system named is PANC-1. As to the kind of experiment: Induction of apoptosis in human PANC-1 cells cultured as 3D spheroids assessed as decrease in caspase-3/7 activity by measuring reduction in cell number at 1 to 10 uM incubated for 48 hrs by Glo-max luminescence assay. It counts as functional, cell-based. As to conditions: dose 1-10 µM.
The test system of another assay is BXPC-3. As to the kind of experiment: Cytotoxicity against human BXPC-3 cells incubated for 48 hrs by MTT assay. Type of assay: functional, cell-based. As to conditions: BXPC-3, 48 h.
The test system of assay [10] is PANC-1. As to the kind of experiment: Cytotoxicity against human PANC-1 cells co-cultured with human pancreatic stellate cells assessed as inhibition of spheroid growth rate at 10 uM measured every two days by microscopic analysis. Type of assay: functional, cell-based.
Assay [11] relates to PANC-1. As to the kind of experiment: Induction of cell cycle arrest in human PANC-1 cells assessed as accumulation of cells at G1 phase at IC50 measured after 72 hrs by propidium iodide/RNase 141 staining based flow cytometry. Type of assay: functional.
Assay [12] relates to PANC-1. As to the kind of experiment: Cytotoxicity against human PANC-1 cells cultured as 3D spheroids assessed as inhibition of spheroid growth rate at 10 uM measured every two days by microscopic analysis. Type of assay: functional, cell-based.
Assay [13] relates to PANC-1. As to the kind of experiment: Induction of apoptosis in human PANC-1 cells cultured as 3D spheroids assessed as increase in caspase-3/7 activity upto 50 uM incubated for 48 hrs by Glo-max luminescence assay relative to control. Type of assay: functional. As to conditions: up to 50 µM.
Assay [14] deals with PANC-1. As to the kind of experiment: Induction of apoptosis in human PANC-1 cells co-cultured with human pancreatic stellate cells assessed as increase in caspase-3/7 activity upto 50 uM incubated for 48 hrs by Glo-max luminescence assay relative to control. Type of assay: functional. Conditions: up to 50 µM.
For assay [15], the system named is PANC-1. As to the kind of experiment: Cytotoxicity against human PANC-1 cells cultured as 3D spheroids assessed as reduction in spheroid growth rate at 0.1 to 100 uM measured every two days by microscopic analysis. Type of assay: functional, cell-based. As to conditions: dose 0.1-100 µM.
Assay [16] deals with PANC-1. As to the kind of experiment: Cytotoxicity against human PANC-1 cells co-cultured with human pancreatic stellate cells assessed as reduction in spheroid growth rate at 0.1 to 100 uM measured every two days by microscopic analysis. It counts as functional, cell-based. As to conditions: dose 0.1-100 µM.

Consider `COc1ccc2c(c1)CC[C@@H]1[C@@H]2[C@H](O)C[C@]2(C)C([C@@](C)(O)C(=O)/C=C/c3ccc(C(F)(F)F)cc3)CC[C@@H]12` (some centres undefined), for which the pIC50 in the assay with ASPC1 was 4.94; in the assay with PANC-1 [2], 4.43; in the assay with PANC-1 [5], less than 4.30; in the assay on PANC-1 [7], 5.19; in the assay with BXPC-3, 5.22. Further, the “fold change (FC)” value in the assay with PANC-1 [1] and in the assay with PANC-1 [6] was 1.5 in each case. Moreover, the outcome in the assay on PANC-1 [3], in the assay with PANC-1 [4], in the assay on PANC-1 [8] and in the assay on PANC-1 [9] was Active.

`Cc1ccc(/C=C/C(=O)[C@](C)(O)C2CC[C@H]3[C@@H]4CCc5cc(O)ccc5[C@H]4CC[C@]23C)s1` (some centres undefined): the pIC50 in the assay on ASPC1 is 4.33; in the assay on PANC-1 [7] it was less than 4.30.

On to `Cc1ccc(/C=C/C(=O)[C@](C)(O)C2CC[C@H]3[C@@H]4CCc5cc(OS(N)(=O)=O)ccc5[C@H]4CC[C@]23C)s1` (some centres undefined), for which the pIC50 in the assay with ASPC1 was 4.42; in the assay on PANC-1 [7] it was less than 4.30.

Regarding `C[C@](O)(C(=O)/C=C/c1ccc(Cl)o1)C1CC[C@H]2[C@@H]3CCc4cc(O)ccc4[C@H]3CC[C@]12C` (some centres undefined), the pIC50 with ASPC1 is less than 4.30; with PANC-1 [7], 4.99.

In the case of `COc1ccc2c(c1)CC[C@@H]1[C@@H]2CC[C@]2(C)C([C@@](C)(O)C(=O)/C=C/c3ccc(Cl)s3)CC[C@@H]12` (some centres undefined), the pIC50 was less than 4.30 with ASPC1 and 4.48 in the assay with PANC-1 [7].

Take `COc1ccc2c(c1)CC[C@@H]1[C@@H]2CC[C@]2(C)C([C@@](C)(O)C(=O)/C=C/c3ccc(Cl)o3)CC[C@@H]12` (some centres undefined): the pIC50 in the assay with ASPC1 is 4.40; with PANC-1 [7] it was less than 4.30.

With `COc1ccc2c(c1)CC[C@@H]1[C@@H]2C(=O)C[C@]2(C)C([C@@](C)(O)C(=O)/C=C/c3ccc(C(F)(F)F)cc3)CC[C@@H]12` (some centres undefined), the pIC50 in the assay on ASPC1 is 5.38; in the assay with PANC-1 [2], 4.68; in the assay with PANC-1 [5] it was 4.61; in the assay on PANC-1 [7] it was 5.28; with BXPC-3, 5.24. Also, the “fold change (FC)” value in the assay with PANC-1 [1] and in the assay with PANC-1 [6] was 1.5 each time. The result in the assay with PANC-1 [10], in the assay with PANC-1 [3], with PANC-1 [11], in the assay with PANC-1 [4], in the assay with PANC-1 [12] and in the assay with PANC-1 [9] was Active.

Take `COc1ccc2c(c1)CC[C@@H]1[C@@H]2CC[C@]2(C)C([C@@](C)(O)C(=O)/C=C/c3ccc(C)s3)CC[C@@H]12` (some centres undefined): the pIC50 in the assay with ASPC1 and in the assay on PANC-1 [7] was less than 4.30 each time.

As to `C[C@](O)(C(=O)/C=C/c1cccs1)C1CC[C@H]2[C@@H]3CCc4cc(O)ccc4[C@H]3CC[C@]12C` (some centres undefined), the pIC50 is less than 4.30 in the assay on ASPC1 and 4.38 with PANC-1 [7].

For `C[C@](O)(C(=O)/C=C/c1ccc(Cl)s1)C1CC[C@H]2[C@@H]3CCc4cc(OS(N)(=O)=O)ccc4[C@H]3CC[C@]12C` (some centres undefined), the pIC50 in the assay with ASPC1 and with PANC-1 [7] was less than 4.30 throughout.

As to `Nc1ccn([C@@H]2O[C@H](CO)[C@@H](O)C2(F)F)c(=O)n1` [GEMCITABINE], the Activity with PANC-1 [13] and with PANC-1 [14] was 20% in each case. For the same molecule, the pIC50 with ASPC1, with PANC-1 [7] and with BXPC-3 was less than 4.30 each time. Moreover, the outcome in the assay with PANC-1 [15] and with PANC-1 [16] was Active.

Regarding `COc1ccc2c(c1)CC[C@@H]1[C@@H]2CC[C@]2(C)C([C@@](C)(O)C(=O)/C=C/c3cccs3)CC[C@@H]12` (some centres undefined), the values for the pIC50 in the assay with ASPC1 and in the assay with PANC-1 [7] were less than 4.30 and 4.42, respectively.

Consider `C[C@](O)(C(=O)/C=C/c1ccc(Cl)s1)C1CC[C@H]2[C@@H]3CCc4cc(O)ccc4[C@H]3CC[C@]12C` (some centres undefined), for which the pIC50 with ASPC1 was less than 4.30; in the assay with PANC-1 [7], 4.40.

As for `C[C@](O)(C(=O)/C=C/c1cccs1)C1CC[C@H]2[C@@H]3CCc4cc(OS(N)(=O)=O)ccc4[C@H]3CC[C@]12C` (some centres undefined), the values for the pIC50 with ASPC1 and with PANC-1 [7] were 4.32 and 4.28, respectively.

For the molecule `COc1ccc2c(c1)CC[C@@H]1[C@@H]2[C@H](O)C[C@]2(C)C([C@@](C)(O)C(=O)/C=C/C(C)(C)O)CC[C@@H]12` (some centres undefined), the pIC50 is 4.76 in the assay on ASPC1; 4.43 with PANC-1 [2]; 4.40 with PANC-1 [5]; 4.93 in the assay with PANC-1 [7]; 4.99 in the assay with BXPC-3. Moreover, the “fold change (FC)” value with PANC-1 [1] and in the assay with PANC-1 [6] was 1.5 in each case. For the same molecule, the outcome in the assay on PANC-1 [3], in the assay with PANC-1 [4], in the assay on PANC-1 [8] and in the assay on PANC-1 [9] was Active.
